Results published in patent publication US7122523B2, “Methods for inhibiting tumor cell proliferation” (University of Southern California, priority 2001, dated 2006).

Legend:
Assay type in all cases: cell-based
[1] = system: Colonic adenocarcinoma, Gr 3–4, moderately to poorly differentiated; assay: Human tumor cell clonigenic assay (tritiated thymidine incorporation); conditions: Sample 36, Colonic adenocarcinoma
Description: (§1) Primary and metastatic tumors obtained from the Department of Obstetrics and Gynecology Pathology Section and the Surgical Pathology Division of Los Angeles County/University of Southern California were minced into pieces less than 2 mm in diameter in the presence of RPMI-1640 (Gibco, Grand Island, NTY) containing 15% heat-inactivated fetal calf serum. Each gram of tumor tissue was treated with 10–20 mL of enzyme medium, consisting of Hanks' balanced salt solution with 0.03% DNAse (500 Kunitz units/mL; Sigma Chemical Co., St. Louis, Mo.) and 0.14% collagenase type I (Sigma). Tumor fragments were stirred for 90 minutes at 37° C. in the presence of 5% CO2. After enzymatic digestion, the free cells were decanted through 40-gauge mesh strainers and centrifuged at 200×g for 10 minutes. The supernatant was removed and viable cells were resuspended in RPMI 1640. The cell number was determined using a hematocytometer and 0.04% trypan blue dye. The cells were then centrifuged and the pellet resuspended in RPMI 1640 at 5×10^5 cells/mL.
(§2) Human cancer cells were obtained from operative specimens provided by the Division of Gynecologic Oncology, Department of Obstetrics and Gynecology, or the Department of Surgical Pathology of Los Angeles County/University of Southern California School of Medicine. Tumor cells were maintained in vitro in RPMI 1640 medium supplemented with 15% heat-inactivated fetal calf serum, 100 μg/mL streptomycin, fungizone 25 μg/mL, and 100 μ/mL penicillin.
(§3) Cells were cultured on an underlayer of 0.5% agarose (Bethesda Research Labs, Bethesda, Md.) prepared from a 3% stock of agarose with added penicillin (100 units/mL), streptomycin (100 μg/mL), and fungizone (1.25 μg/mL) (GIBCO) as per a modification of an established procedure. The cloning efficiency of this assay varied depending upon the source of the tissue. One milliliter of this 0.5% agarose mixture was added to each 16×16-mm well of a 24-well plate and the plates were refrigerated for 10 minutes at 4° C. Cells were suspended in 0.6% agarose in RPMI-1640 supplemented with antibiotics and 15% fetal calf serum. One aliquot (0.5 mL) of cell suspension was added to each underlaver at a final concentration of 5×10^4 cells/well, and the plates were refrigerated 10 minutes at 4° C.
(§4) After a 72-hour incubation at 37° C., 5 μCi of tritiated thymidine (specific activity 18.2 Ci/mmol; New England Nuclear, Boston, Mass.) was layered over each well, and the plates were returned to the incubator for an additional 24 hours, incorporation of thymidine was terminated by transferring the agarose layers to 10-mL glass centrifuge tubes (Kimble, Division of Owens, Ill.) and boiling the tubes for 15 minutes in a water bath. The volume was brought to 8 mL, the tubes were centrifuged, and the pellets were washed with phosphate-buffered saline and then dissolved in 3 mL of 0.85 N KOH for 1 hour at 80° C. The tubes were cooled on ice and the hydrolysates were precipitated by adding 30 μL of 1% human serum albumin (Sigma) and 2.4 mL of ice-cold trichloroacetic acid. After overnight storage at 4° C., precipitates were collected by centrifugation. Pellets were washed with 5% trichloroacetic acid, dissolved in 0.3 mL of 0.075 N KOH, and transferred to scintillation vials to which 5 mL of Liquiscint (National Diagnostics, Somerville, N.J.) were added. Radioactivity per vial was measured in a Nuclear-Chicago liquid scintillation counter.

[2] = system: Ovarian papillary serous carcinoma; assay: as above; conditions: Sample 2, Ovarian papillary serous carcinoma
Description: as §1, §2, §3, §4

[3] = system: Squamous Cell Carcinoma of the Cervix, gr 3; assay: as above; conditions: Sample 12, Squamous Cell Carcinoma of the Cervix, AII(1–7) 0.1 ng/ml–10 μg/ml
Description: as §1, §2, §3, §4

Ovarian adenocarcinoma = assay: as above; conditions: for Effect of AII(1–7) on proliferation: AII(1–7) 0.1 ng/ml–10 μg/ml; for IC50 (ng/ml) of AII(1–7): proliferation
Description: as §1, §2, §3, §4

[4] = system: Invasive, moderately differentiated adenocarcinoma of colon; assay: as above; conditions: Sample 29, Invasive, AII(1–7) 0.1 ng/ml–10 μg/ml
Description: as §1, §2, §3, §4

Uterine Carcinosarcoma = assay: as above; conditions: Sample 17, Uterine Carcinosarcoma; AII(1–7) 0.1 ng/ml–10 μg/ml
Description: as §1, §2, §3, §4

[5] = system: Ovarian Cancer-High Grade Clear Cell Carcinoma; assay: as above; conditions: Sample 16, Ovarian Cancer-High Grade Clear Cell Carcinoma; AII(1–7) 0.1 ng/ml–10 μg/ml
Description: as §1, §2, §3, §4

Leiomyosarcoma = assay: as above; conditions: Sample 1, Leiomyosarcoma; AII(1–7) 0.1 ng/ml–10 μg/ml
Description: as §1, §2, §3, §4

[6] = system: Recurrent moderately differentiated colonic adenocarcinoma; assay: as above; conditions: Sample 19, Recurrent moderately differentiated colonic adenocarcinoma; AII(1–7) 0.1 ng/ml–10 μg/ml
Description: as §1, §2, §3, §4

[7] = system: Endometrial adenocarcinoma; assay: as above; conditions: for Effect of AII(1–7) on proliferation: AII(1–7) 0.1 ng/ml–10 μg/ml; for IC50 (ng/ml) of AII(1–7): proliferation
Description: as §1, §2, §3, §4

[8] = system: Metastatic colon adenocarcinoma; assay: as above; conditions: Sample 26, Metastatic colon adenocarcinoma; AII(1–7) 0.1 ng/ml–10 μg/ml
Description: as §1, §2, §3, §4

[9] = system: Ovarian carcinoma-clear cell; assay: as above; conditions: Sample 3, Ovarian carcinoma-clear cell; AII(1–7) 0.1 ng/ml–10 μg/ml
Description: as §1, §2, §3, §4

[10] = system: Human Primary Tumor Cells; assay: Clonigenic assay, Chi Square analysis of tumor-type specificity over all samples
Description: as §1, §2, §3, §4

[11] = Sample 27, Ovarian adenocarcinoma
[12] = Sample 32, Ovarian adenocarcinoma
[13] = Sample 4, Endometrial adenocarcinoma
[14] = Sample 8, Endometrial adenocarcinoma
[15] = Sample 11, Endometrial adenocarcinoma
[16] = Sample 18, Endometrial adenocarcinoma
[17] = Sample 22, Endometrial adenocarcinoma
[18] = Sample 23, Endometrial adenocarcinoma

## CC[C@H](C)[C@H](NC(=O)[C@H](Cc1ccc(O)cc1)NC(=O)[C@@H](NC(=O)[C@H](CCCNC(=N)N)NC(=O)[C@@H](N)CC(=O)O)C(C)C)C(=O)N[C@@H](Cc1c[nH]cn1)C(=O)N1CCC[C@H]1C(=O)O [AII(1–7), Asp-Arg-Val-Tyr-Ile-His-Pro]
[1]; AII(1–7) 0.1 ng/ml–10 μg/ml
  Effect of AII(1–7) on proliferation: Decreased
[1]; proliferation
  IC50 (ng/ml) of AII(1–7): 2.55 ng/mL
[2]; AII(1–7) 0.1 ng/ml–10 μg/ml
  Effect of AII(1–7) on proliferation: Decreased
[2]; proliferation
  IC50 (ng/ml) of AII(1–7): 3.0 ng/mL
[3]
  Effect of AII(1–7) on proliferation: No Effect
Ovarian adenocarcinoma; [11]
  Effect of AII(1–7) on proliferation: Decreased
  IC50 (ng/ml) of AII(1–7): 3.6 ng/mL
Ovarian adenocarcinoma; [12]
  Effect of AII(1–7) on proliferation: Decreased
  IC50 (ng/ml) of AII(1–7): 3.4 ng/mL
Ovarian adenocarcinoma; Sample 33, Ovarian adenocarcinoma
  Effect of AII(1–7) on proliferation: No Effect
[4]
  Effect of AII(1–7) on proliferation: No Effect
Uterine Carcinosarcoma
  Effect of AII(1–7) on proliferation: No Effect
[5]
  Effect of AII(1–7) on proliferation: No Effect
Leiomyosarcoma
  Effect of AII(1–7) on proliferation: No Effect
[6]
  Effect of AII(1–7) on proliferation: No Effect
[7]; [13]
  Effect of AII(1–7) on proliferation: Decreased
  IC50 (ng/ml) of AII(1–7): 1.0 ng/mL
[7]; [14]
  Effect of AII(1–7) on proliferation: Decreased
  IC50 (ng/ml) of AII(1–7): 1.0 ng/mL
[7]; Sample 9, Endometrial adenocarcinoma
  Effect of AII(1–7) on proliferation: Decreased
[7]; [15]
  Effect of AII(1–7) on proliferation: No Effect
  IC50 (ng/ml) of AII(1–7): No Effect
[7]; [16]
  Effect of AII(1–7) on proliferation: No Effect
  IC50 (ng/ml) of AII(1–7): No Effect
[7]; [17]
  Effect of AII(1–7) on proliferation: Decreased
  IC50 (ng/ml) of AII(1–7): 0.1 ng/mL
[7]; [18]
  Effect of AII(1–7) on proliferation: Decreased
  IC50 (ng/ml) of AII(1–7): 4.0 ng/mL
[8]
  Effect of AII(1–7) on proliferation: Variable
[9]
  Effect of AII(1–7) on proliferation: No Effect
[10]; All adenocarcinoma: 14 decreased, 8 not affected
  tumors affected (proliferation decreased): 63.6%
[10]; Breast infiltrating ductal adenocarcinoma: 4 decreased, 2 not affected
  tumors affected (proliferation decreased): 66.7%
[10]; Uterine adenocarcinoma and breast infiltrating ductal adenocarcinoma: 9 decreased, 4 not affected
  tumors affected (proliferation decreased): 69.2%
[10]; Uterine adenocarcinoma: 5 decreased, 2 not affected
  tumors affected (proliferation decreased): 71.4%
[10]; Uterine, ovarian and breast adenocarcinomas: 11 decreased, 5 not affected
  tumors with decreased proliferation: 68.8%
[10]; remaining tumors not adenocarcinoma: 2 decreased, 10 not affected
  tumors affected (proliferation decreased): 16.7%
[10]; remaining tumors not of breast infiltrating ductal adenocarcinoma origin: 12 decreased, 16 not affected
  tumors affected (proliferation decreased): 42%
[10]; remaining tumors not of uterine adenocarcinoma origin: 11 decreased, 16 not affected
  tumors affected (proliferation decreased): 40.7%
[10]; remaining tumors not of uterine or breast adenocarcinoma origin: 7 decreased, 14 not affected
  tumors affected (proliferation decreased): 33.3%
[10]; remaining tumors not of uterine, ovarian or breast adenocarcinoma origin: 5 decreased, 13 not affected
  tumors with decreased proliferation: 27.8%
